As usually defined, the IC50 is the midpoint of a concentration-inhibition curve.

Test [1] deals with NF54/iGP1_RE9H^ulg8 stage V gametocytes. Briefly: Dose-response assay on gametocytes, MitoTracker-based readout. Type of test: cell-based, Plasmodium falciparum. The source says:
Compound 31 was also found to be active against the sexual stage of P. falciparum using the MitoTracker‐based readout. This readout is based on quantifying MitoTracker‐based gametocyte viability as recently described.^[ [7] ^] Briefly, high content imaging of MitoTracker‐ and Hoechst‐stained cells and automated image analysis using the MetaXpress software was used to determine the number of viable gametocytes based on mitochondrial activity and cellular shape.
Sexual commitment was induced in the NF54/iGP1_RE9H^ulg8 parasite line as described in ^[18,^52]. Synchronous ring stage cultures at 2-3% parasitemia (8-16 hpi) were grown for 48 hours in a culture medium lacking D-(+)-glucosamine hydrochloride (GlcN) and containing 1.25 µM Shield-1 to induce GDV1-GFP-DD expression. The induction medium was replaced with standard culture medium containing 50 mM N-acetyl-glucosamine (GlcNAc) for six consecutive days.) to selectively kill asexual parasites.^[53^,54^] Gametocytes were maintained in standard culture medium from day 7 onwards. During the first seven days of gametocyte development, the culture medium was exchanged daily and every second day subsequently. Visual inspection of Hemacolor-stained thin blood smears with a 100x immersion oil objective (total magnification = 1000x) was performed to assess gametocytemia.
Dose response assays were performed in biological triplicates, each in technical duplicate, as described in ^[18, ^55]. Synchronous NF54/iGP1_RE9H^ulg8 gametocyte cultures were resuspended at ~2% gametocytemia in an assay medium at 3% haematocrit. […] MitoTracker-based gametocyte viability was quantified using a modified version of published protocols.^[56^,57^] […] After imaging two technical replicates, the results were averaged and normalized to the plateau of sub-lethal compound concentrations using the “first mean in each data set” function and IC50 values were calculated using nonlinear, four parameter (variable slope) curve fitting in GraphPad Prism (version 8.3.0).

The test system of test [2] is 60S ribosomal protein L17 (W7KA36). The test can be described thus: iSPP profiling, P. falciparum lysate. The format is binding, Plasmodium falciparum. The protocol:
(§1) P. falciparum NF54 lysates were extracted as described in ^[26^] . The parasite asynchronous culture was extracted once 3-5% parasitemia was reached. Saponin lysis was done as described in 2.2.10. Once the parasite pellet was obtained, 2.5 volumes of ice-cold lysis buffer (50 mM Tris/HCl pH 7.5 (Avantor), 5% glycerol (Sigma-Aldrich), 150 mM NaCl (Carl Roth), 1.5 mM MgCl2 (Sigma-Aldrich), 1 mM DTT (Carl Roth), 0.8% IGEPAL CA-630 (Sigma-Aldrich), 1X Halt Protease and Phosphatase Inhibitor-Cocktails EDTA-free (Thermo Fisher Scientific)) was added to the parasite pellet. The lysate solution was subjected to three cycles of flash freeze-thaw with liquid nitrogen and ddH2O at RT. The lysates were centrifuged at 20,000 g for 20 minutes at 4 °C. The soluble protein fraction (supernatant) was collected and the protein content was quantified using the BCA assay (Pierce™ BCA Protein Assay Kit, Thermo Fisher Scientific). The lysate was stored at -80 °C until further use.
(§2) The P. falciparum lysate was thawed on ice and diluted to 0.8 mg/mL. […] Subsequently, the samples were incubated at room temperature for 30 minutes using a rotating mixer. After distribution into a 96-well plate, the samples were treated with increasing concentrations of A.E.A. (v/v) ranging from 14% to 28% (14, 16, 18, 20, 22, 24, 26, and 28%). Following a 20-minute incubation at 37°C with shaking at 750 rpm, the samples were centrifuged at 4400 g for 35 minutes to remove precipitated proteins. The soluble fractions were then pooled in equal volumes into a single sample using the Bravo Automated Liquid Handling Platform. The pooled samples were subsequently prepared for LC-MS/MS analysis.
(§3) The raw LFQ-DIA intensity values of biological replicates across all conditions were normalized to the median abundance using Excel. The normalized values were then log2 transformed in Perseus (v2.0.10.0).^[58^] Missing values were imputed from a normal distribution (width 0.3, down shift 1.5), and p-values were obtained using a two-sample t-test over replicates with a permutation-based false discovery rate correction (FDR 0.05). Volcano plots were generated in RStudio using the EnhancedVolcano package (v. 1.20.0), ^[59^] plotting proteins by statistical significance (y-axis: –Log10 p-value) versus the magnitude of change (x-axis: log2 fold change of protein intensities for each compound condition relative to the vehicle control). The heatmap was generated in Perseus (v2.0.10.0). Dose-dependent curves were generated using normalized protein intensity values, expressed as a ratio to the vehicle control. Plots were created in GraphPad Prism (v8.3.0) using a nonlinear regression model.

Test [3] has as its system 60S ribosomal protein L18a (W7JPN9). Briefly: iSPP profiling, P. falciparum lysate. Type of test: binding, Plasmodium falciparum. The protocol:
as §1, §2, §3

The subject of test [4] is 60S ribosomal protein L22 (W7K6D9). Briefly: iSPP profiling, P. falciparum lysate. Type of test: binding, Plasmodium falciparum. The protocol:
as §1, §2, §3

Where two headings read alike, the source gives them in different places. Where only a bound is given, the exact number is not on record here.

On to `CN1CCN(Cc2ccc(O)c(NC(=O)c3cccc(Oc4cc(C(F)(F)F)ccn4)c3)c2)CC1` [Compound 31, N-(2-hydroxy-5-((4-methylpiperazin-1-yl)methyl)phenyl)-3-((4-(trifluoromethyl)pyridin-2-yl)oxy)benzamide], for which the IC50 is 354 nM in test [1] (Plasmodium falciparum, NF54, 72 h, read-out: IC50 mature (stage V) gametocytes, 72 h exposure, MitoTracker readout, N = 3) and less than 500 nM in test [1] (read-out: IC50 mature (stage V) gametocytes, 72 h exposure, MitoTracker readout, N = 3). Moreover, the “fold reduction in activity against the sexual stages compared to the asexual stage” value in test [1] (stage V gametocytes vs NF54 asexual) is 91 fold. Also, the log2FC in test [2] (10 µM) came to 0.35; in test [2] (50 µM) it was 0.49; in test [2] (100 µM), 0.40; in test [2] (10^-2 µM), 0.30; in test [2] (10^-3 µM), 0.17; in test [3] (10 µM), 0.72. The log2FC worked out at 1.09 in test [3] (50 µM); 0.81 in test [3] (100 µM); 0.75 in test [3] (10^-2 µM); 0.60 in test [3] (10^-3 µM); 0.72 in test [4] (10 µM); 0.75 in test [4] (50 µM). Besides, the log2FC in test [4] (100 µM) worked out at 0.65; in test [4] (10^-2 µM), 0.61; in test [4] (10^-3 µM), 0.18.

Source of the values: paper PMC12668308, “A Novel Antimalarial Agent that Inhibits Protein Synthesis in Plasmodium falciparum” (Angewandte Chemie (International Ed. in English), 2025).
